Source: patent US7060834B2, “N-type calcium channel antagonists for the treatment of pain” (AstraZeneca AB, priority 2001, dated 2006)

Experiments:
[1] = test system: formalin-induced nocifensive behaviours; experiment: Formalin test; assay type: in vivo, rats
Description: II. Formalin Test. The Formalin test assesses the inhibitory effects of orally administered N-type calcium channel antagonists on formalin-induced nocifensive behaviours in rats. The formalin test is a well established pain test (Dubuisson and Dennis, 1977; Wheeler-Aceto et al., 1990; Coderre et al., 1993). This test consists of two distinct phases of formalin-induced behavior. The first phase response, occurring between 0 to 5 minutes, is caused by acute nociception to the noxious chemical (formalin) injected into the paw. This is followed by a quiescent period of between 5 to 15 min post injection. A second phase response, occurring after 15 minutes and lasting up to 60 minutes, is caused by sensitization of the central neurons in the dorsal horn. Central sensitization augments the noxious afferent input and a stronger pain barrage is transmitted into the brain. Inhibition of the second phase response is indicative of a central mechanism of drug action. The procedure for the formalin test is as follows: male rats are placed in a Plexiglas chamber and observed for 30-45 min. to observe their baseline activity. Multiple groups of animals are pretreated with either vehicle or different doses of a test compound. Animals are dosed with the drug of interest either 40 min., if by the intraperitoneal route, or 90 min., if by the oral route, prior to injection of formalin into a hind paw (under the dorsal skin; 0.05 mL of sterile 5% formalin). The number of paw flinches and licks during first phase (0-5 min.) and second phase (20-35 min.) are scored and recorded. […] and lick responses are calculated as percentage of inhibition compared with the mean score of a saline control group. Drug potencies are expressed as the dose which causes 50% of the maximum inhibitory effect (“ID50”). Student t-tests are used for statistical analysis to determine the significance of drug effects. Compounds are considered active based on their ability to inhibit the flinch response.

N-type calcium channel = N-type calcium channel (Homo sapiens, UniProt Q00975); experiment: N-Channel FLIPR (Fluorescent Laser Imaging Plate Reader) assay; assay type: cell-based; conditions: inhibition of 80 mM K+ evoked calcium flux, differentiated IMR32 cells
chemo-nociception = conditions: phenylbenzoquinone-induced writhing and formalin test; cited from earlier work

N-type calcium channel, sequence (Q00975 whole entry): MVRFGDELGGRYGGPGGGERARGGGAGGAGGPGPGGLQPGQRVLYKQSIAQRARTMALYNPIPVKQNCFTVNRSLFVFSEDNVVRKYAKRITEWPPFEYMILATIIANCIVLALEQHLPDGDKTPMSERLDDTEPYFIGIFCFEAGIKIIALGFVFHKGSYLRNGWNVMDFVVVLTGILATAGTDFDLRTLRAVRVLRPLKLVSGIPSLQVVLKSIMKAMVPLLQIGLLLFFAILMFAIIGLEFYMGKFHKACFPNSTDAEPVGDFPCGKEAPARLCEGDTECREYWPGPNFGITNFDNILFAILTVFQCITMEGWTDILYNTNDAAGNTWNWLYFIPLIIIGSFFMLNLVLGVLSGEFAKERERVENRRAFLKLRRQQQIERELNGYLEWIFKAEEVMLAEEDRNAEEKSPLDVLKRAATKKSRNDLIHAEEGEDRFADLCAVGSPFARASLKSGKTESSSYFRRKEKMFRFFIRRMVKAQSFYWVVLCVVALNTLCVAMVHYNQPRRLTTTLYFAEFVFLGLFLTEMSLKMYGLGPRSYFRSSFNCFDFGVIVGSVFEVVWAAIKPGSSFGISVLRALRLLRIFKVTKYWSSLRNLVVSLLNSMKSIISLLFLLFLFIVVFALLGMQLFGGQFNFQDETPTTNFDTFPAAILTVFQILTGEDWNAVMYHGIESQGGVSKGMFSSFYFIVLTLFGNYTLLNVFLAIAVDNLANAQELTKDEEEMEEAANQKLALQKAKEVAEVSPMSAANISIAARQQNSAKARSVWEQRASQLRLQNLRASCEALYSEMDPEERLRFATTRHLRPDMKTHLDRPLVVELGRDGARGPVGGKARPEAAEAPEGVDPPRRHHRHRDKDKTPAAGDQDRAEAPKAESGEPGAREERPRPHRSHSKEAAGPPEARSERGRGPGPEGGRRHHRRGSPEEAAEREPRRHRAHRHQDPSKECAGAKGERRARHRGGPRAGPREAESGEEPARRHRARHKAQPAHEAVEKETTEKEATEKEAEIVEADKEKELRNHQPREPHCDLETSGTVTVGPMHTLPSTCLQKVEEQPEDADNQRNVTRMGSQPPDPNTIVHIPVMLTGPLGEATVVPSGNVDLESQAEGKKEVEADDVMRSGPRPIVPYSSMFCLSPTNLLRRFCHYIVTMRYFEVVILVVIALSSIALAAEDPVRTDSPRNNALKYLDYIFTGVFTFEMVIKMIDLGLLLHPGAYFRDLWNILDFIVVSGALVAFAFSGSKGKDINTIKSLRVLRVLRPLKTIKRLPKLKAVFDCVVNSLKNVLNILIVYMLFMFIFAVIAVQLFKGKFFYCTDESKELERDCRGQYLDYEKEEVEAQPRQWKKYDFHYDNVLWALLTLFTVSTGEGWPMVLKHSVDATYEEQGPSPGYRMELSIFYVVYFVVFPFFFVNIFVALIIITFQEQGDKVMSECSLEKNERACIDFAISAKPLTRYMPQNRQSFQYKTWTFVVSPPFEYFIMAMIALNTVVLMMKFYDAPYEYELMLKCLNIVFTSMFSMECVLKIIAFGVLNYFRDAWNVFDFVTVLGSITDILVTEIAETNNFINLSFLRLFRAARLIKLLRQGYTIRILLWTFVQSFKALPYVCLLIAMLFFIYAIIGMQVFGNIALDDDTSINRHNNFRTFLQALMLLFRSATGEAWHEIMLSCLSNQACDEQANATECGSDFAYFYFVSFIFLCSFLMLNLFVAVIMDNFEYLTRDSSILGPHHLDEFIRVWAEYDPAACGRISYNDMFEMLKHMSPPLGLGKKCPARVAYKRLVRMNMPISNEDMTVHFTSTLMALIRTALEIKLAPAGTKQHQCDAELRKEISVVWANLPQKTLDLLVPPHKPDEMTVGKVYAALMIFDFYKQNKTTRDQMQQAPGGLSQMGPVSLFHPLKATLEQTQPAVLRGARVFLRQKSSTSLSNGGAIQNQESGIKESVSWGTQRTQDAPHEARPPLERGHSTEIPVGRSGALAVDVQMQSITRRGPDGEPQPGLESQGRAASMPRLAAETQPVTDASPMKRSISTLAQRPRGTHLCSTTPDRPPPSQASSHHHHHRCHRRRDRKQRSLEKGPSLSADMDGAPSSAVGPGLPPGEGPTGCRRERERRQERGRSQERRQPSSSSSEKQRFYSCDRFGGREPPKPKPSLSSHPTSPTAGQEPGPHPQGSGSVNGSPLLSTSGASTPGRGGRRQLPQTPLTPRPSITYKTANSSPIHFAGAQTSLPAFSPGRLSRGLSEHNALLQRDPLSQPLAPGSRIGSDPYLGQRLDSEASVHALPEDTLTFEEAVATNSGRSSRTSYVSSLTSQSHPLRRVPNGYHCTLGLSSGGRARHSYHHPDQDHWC
N-type calcium channel, sequence (P54289 25-1103 partner): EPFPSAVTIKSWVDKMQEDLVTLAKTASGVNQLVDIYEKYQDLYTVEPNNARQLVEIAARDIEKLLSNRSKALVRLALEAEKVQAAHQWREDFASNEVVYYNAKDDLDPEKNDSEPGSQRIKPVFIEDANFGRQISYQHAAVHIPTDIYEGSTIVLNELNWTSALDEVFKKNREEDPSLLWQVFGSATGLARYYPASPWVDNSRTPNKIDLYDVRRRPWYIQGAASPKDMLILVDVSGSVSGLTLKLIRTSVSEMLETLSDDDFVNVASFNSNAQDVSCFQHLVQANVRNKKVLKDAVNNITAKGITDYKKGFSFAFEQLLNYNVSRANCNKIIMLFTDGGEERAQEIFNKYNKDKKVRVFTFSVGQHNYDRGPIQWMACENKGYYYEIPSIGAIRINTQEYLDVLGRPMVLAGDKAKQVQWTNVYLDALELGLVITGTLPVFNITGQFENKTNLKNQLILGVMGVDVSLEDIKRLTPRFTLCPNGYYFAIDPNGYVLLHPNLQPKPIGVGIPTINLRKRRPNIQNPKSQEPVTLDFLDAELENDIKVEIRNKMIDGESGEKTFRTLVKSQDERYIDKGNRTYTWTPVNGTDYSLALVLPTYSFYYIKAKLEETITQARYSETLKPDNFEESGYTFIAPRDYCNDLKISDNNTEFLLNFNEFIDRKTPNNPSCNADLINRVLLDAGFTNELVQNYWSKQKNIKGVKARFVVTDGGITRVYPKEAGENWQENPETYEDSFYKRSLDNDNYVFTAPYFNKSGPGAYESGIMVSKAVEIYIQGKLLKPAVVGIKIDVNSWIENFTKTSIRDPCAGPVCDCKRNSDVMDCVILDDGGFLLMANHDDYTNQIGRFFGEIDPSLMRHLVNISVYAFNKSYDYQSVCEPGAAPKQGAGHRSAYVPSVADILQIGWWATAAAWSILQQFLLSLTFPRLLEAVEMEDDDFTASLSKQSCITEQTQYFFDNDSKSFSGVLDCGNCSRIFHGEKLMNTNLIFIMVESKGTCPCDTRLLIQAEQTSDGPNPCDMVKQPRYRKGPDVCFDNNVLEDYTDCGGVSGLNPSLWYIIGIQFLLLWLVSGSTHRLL
N-type calcium channel, sequence (P54284 whole entry partner): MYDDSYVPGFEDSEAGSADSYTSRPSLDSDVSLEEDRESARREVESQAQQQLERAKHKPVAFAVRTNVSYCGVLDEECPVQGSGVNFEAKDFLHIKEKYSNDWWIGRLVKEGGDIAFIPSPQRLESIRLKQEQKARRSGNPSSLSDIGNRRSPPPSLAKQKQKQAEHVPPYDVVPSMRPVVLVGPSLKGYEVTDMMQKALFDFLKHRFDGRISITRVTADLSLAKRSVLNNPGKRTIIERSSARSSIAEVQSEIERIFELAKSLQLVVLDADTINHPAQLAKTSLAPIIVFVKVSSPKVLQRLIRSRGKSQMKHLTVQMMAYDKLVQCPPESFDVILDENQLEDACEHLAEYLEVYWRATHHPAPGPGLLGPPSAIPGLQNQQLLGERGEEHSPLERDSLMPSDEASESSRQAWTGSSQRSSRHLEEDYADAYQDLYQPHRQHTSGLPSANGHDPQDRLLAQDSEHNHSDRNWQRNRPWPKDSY

IC50 (N-type calcium channel) | SMILES | further results
5870 nM | CC(C)(C)CNc1cc(Nc2ccc(F)c(Cl)c2)nc2ccccc12 [Example 2, N2(3-chloro-4-fluoro-phenyl)-N4(2,2-dimethyl-propyl)-quinoline-2,4-diamine] | Formalin test % inhibition (dose, time, route) ([1]; (76, 40, IP)): 39 (76, 40, IP) %
1720 nM | COc1ccc(Nc2cc(NCC(C)(C)C)c3ccccc3n2)cc1OC [Example 3, N2(3,4-dimethoxy-phenyl)-N4(2,2-dimethyl-propyl)-quinoline-2,4-diamine] | Formalin test % inhibition (dose, time, route) ([1]; (75, 40, IP)): 22 (75, 40, IP) %
670 nM | CC(C)(C)CNc1cc(Nc2ccccc2N2CCOCC2)nc2ccccc12 [Example 7, N4(2,2-dimethyl-propyl)-N2(2-morpholin-4-yl-phenyl)-quinoline-2,4-diamine] | Formalin test % inhibition (dose, time, route) ([1]; (59, 40, IP)): 24 (59, 40, IP) %
2820 nM | COc1ccc(Nc2cc(NCC(C)(C)C)c3cccc(F)c3n2)cc1OC [Example 8, N2(3,4-Dimethoxy-phenyl)-N4(2,2-dimethyl-propyl)-8-fluoro-quinoline-2,4-diamine] | –
6870 nM | CC(C)(C)CNc1cc(Nc2ccc3ncsc3c2)nc2c(F)cccc12 [Example 11, N2-Benzothiazol-6-yl-N4(2,2-dimethyl-propyl)-8-fluoro-quinoline-2,4-diamine] | –
– | COc1ccccc1CC(=N)N1C[C@@H]2C(=O)CCC(c3ccccc3)(c3ccccc3)[C@@H]2C1 [RP 67,580] | analgesia (chemo-nociception): produced analgesia with potency comparable to that of morphine
